Here are results for 2 molecules from US5153352A, “Process for preparation of intermediates of carbocyclic nucleoside analogs” (priority 1990, dated 1992).

Molecules are shown by their SMILES. In brackets after ≈: the same amount, converted by molar mass. Several values for one entry are separate records, joined by “and”; a condition that tells them apart may be missing. Equal entries are not always repeated.

Data set [1] has as its system Human Immunodeficiency Virus (HIV-2). Put plainly: anti-HIV-2 protection of ATH8 cells (method of Mitsuya and Broder). To be noted: ATH-8, HIV-2, ATH8 cells, read-out: Protective Effect. The data set is classed as cell-based. From the text: The method of Mitsuya and Broder (AIDS: Modern Concepts and Therapeutic Challenges; Broder, S. ED.; Marcel Dekker, Inc.; New York, 1987; Chapter 18) was used to determine the in vitro anti-HIV-1 and anti-HIV-2 activity in ATH8 cells of some compounds of the invention. The results of the test are expressed as the percentage of ATH8 cells that were protected from the cytopathogenic effects of HIV at various concentrations of the compound of the invention.

Data set [2] can be described thus: cytotoxicity in ATH8 cells (method of Mitsuya and Broder). Type of data set: cell-based. Conditions: human. An excerpt:
The method of Mitsuya and Broder (AIDS: Modern Concepts and Therapeutic Challenges; Broder, S. ED.; Marcel Dekker, Inc.; New York, 1987; Chapter 18) was used to determine the in vitro anti-HIV-1 and anti-HIV-2 activity in ATH8 cells of some compounds of the invention. […]

In data set [3] the test system is P388D1: Lymphocytic Leukemia. Put plainly: cytotoxic activity against cultured tumor cells, P388-D1. The data set is classed as cell-based. To be noted: Mus musculus, P388D1, 72 h; P388-D1, 3 days, MTT.
The subject of another data set is A549: Lung carcinoma. Put plainly: cytotoxic activity against cultured tumor cells, A549. The data set is classed as cell-based. Conditions: Homo sapiens, 72 h; A549, 3 days, MTT.
For data set [4], the system named is Herpes simplex type 2 (HSV-2) strain MS. Put plainly: CPE-inhibition assay, HSV-2 strain MS in Vero cells. Conditions: for EC50: Human alphaherpesvirus 2, Vero, read-out: ID50 (minimum drug concentration that inhibited the CPE by 50%), HSV-2 (MS), Vero.
The test system of data set [5] is HCT8: Adenocarcinoma, ileocecal. Briefly: cytotoxic activity against cultured tumor cells, HCT-8. The data set is classed as cell-based. To be noted: Homo sapiens, 72 h; HCT-8, 3 days, MTT.
In data set [6] the test system is Human Immunodificiency Virus (HIV-1). Put plainly: inhibition of HIV-1 replication in human PBMC (RT activity). The data set is classed as cell-based. Conditions: Human immunodeficiency virus 1; HIV-1, PBMC, median-effect method. As to the method: Human peripheral blood mononuclear cells (PBMC) from healthy HIV-1 seronegative and hepatitis B virus seroneqative donors were isolated by Ficoll-Hypague discontinuous gradient centrifugation at 1,000×g for 30 minutes, washed twice in phosphate buffered saline (pH 7.2; PBS), and pelleted at 300×g for 10 minutes. Before infection, the cells were stimulated by phytohemagglutinin (PHA) at a concentration of 16.7 ug/ml for three days in RPMI 1640 medium supplemented with 15% heat-inactivated fetal calf serum, 1.5 mM L-glutamine, penicillin (100 U/ml), streptomycin (100 ug/ml) and 4 mM sodium bicarbonate buffer.
Uninfected PHA stimulated human PBMC were uniformly distributed among 25 cm^2 flasks to give a 5 ml suspension containing about 2×10^6 cells/ml. Suitable dilutions of virus were added to infect the cultures. The mean reverse transcriptase (RT) activity of the inocula was 60,000 dpm RT activity/10^6 cells. […]
The RT assay was perfromed in 96-well microtiter plates as described by Spira, et al. (J. Clin. Microbiol. 25 97 (1987)). […] Four ml of scintillation fluid (Econofluor, NEN Research Products, Boston, Ma.) were added and the amount of radioactivity in each sample was determined using a Packard Tri Carb liquid scintillation analyzer (model 2,000CA). […]

Data set [7] relates to Human Cytomegalovirus (HCMV). Briefly: HCMV virus yield reduction assay in MRC5 cells. Type of data set: cell-based, Human cytomegalovirus (strain AD169). As for the experimental part:
Human diploid embryonic lung (MRC5) cells were grown in 35 mm wells of 6-well tissue culture plates. Subconfluent cell monolayers were rinsed with phosphate buffered saline (PBS) and were exposed to 0.5 ml/well of HCMV (strain AD169) suspension for 1.5 hours at 37° C. The virus suspension was diluted in MEM+2% fetal bovine serum (FBS) to yield a multiplicity of infection (MOI) of approximately 0.1 plaque forming units (PFU)/cell. Following the virus adsorption period, the inocula were removed and infected cell layers were rinsed with PBS. Aliquots (2.0 ml) of each test drug concentration (dissolved in MEM supplemented with 2% FBS) were dispensed into triplicate cell cultures: two virus infected cultures and one uninfected cytotoxicity control culture (exposed to medium without virus for 1.5 hours). Untreated virus infected control cultures and untreated, uninfected cell control cultures were fed with medium alone.
All cell culture fluids were replaced with fresh drug and medium 48 hours postinfection (p.i.).
On Day 6 p.i., the cell layers were examined microscopically for cytopathogenic effect (CPE) and drug cytotoxicity. The test and virus control cultures were then harvested by subjecting the cell layers to one cycle of freeze-thawing.
The harvested test and virus control samples were thawed and the infectious virus yield was determined by plaque assay in MRC5 cells grown in 12-well cluster plates. Inhibition of HCMV replication by each test compound was determined by comparing the progeny virus yields in the drug-treated cultures with the progeny virus yield in the untreated, virus infected control cultures.

Where [8] appears, read: Human betaherpesvirus 5, 144 h, 1.0 ug/ml.
Setting [9] is: Human betaherpesvirus 5, 144 h, 3.2 ug/ml.
Setting [10] is: Human betaherpesvirus 5, 144 h, 10 ug/ml.
Where [11] appears, read: Human betaherpesvirus 5, 144 h, 32 ug/ml.

A word on the IC50: it is the concentration at which inhibition is half-maximal. A high value points to weaker potency in that assay.

In the case of `Nc1nc2c(ncn2C2CC(CO)C2CO)c(=O)[nH]1` (stereo not drawn) [Example 1I, 9-(2',3'-Bis(hydroxymethyl)cyclobutyl)guanine], the inhibition at 1 µM in data set [1] came out at 24%. Besides, the inhibition at 10 µM in data set [1] was found to be 65%. The values for the cytotoxicity at 1 µM in data set [2] (HIV-1 experiment) and in data set [2] (HIV-2 experiment) were 0% and 11%, respectively. The cytotoxicity at 10 µM in data set [2] (HIV-1 experiment) was 0%; in data set [2] (HIV-2 experiment), 11%. The half-maximal inhibitory concentration (IC50) was 2.8 µg/mL (≈ 10.6 µM) in data set [3], 94.6 µg/mL (≈ 357 µM) in the data set on A549: Lung carcinoma and more than 100 µg/mL in data set [5]. Moreover, in data set [4] (HSV-2 (MS), Vero), the “TI (Therapeutic Index, MTC/ID50)” value is 50 and 30. The results for the EC50 in data set [4] and in data set [6] were 6.4 µg/mL (≈ 24.1 µM) and 980 nM, respectively. The HCMV yield in data set [7] (1.0 ug/ml) is on record as 3.12 log10 PFU/ml; in data set [7] (3.2 ug/ml) it was 2.43 log10 PFU/ml; in data set [7] (10 ug/ml) it was 1.63 log10 PFU/ml; in data set [7] (32 ug/ml), less than 0.6 log10 PFU/ml. The same molecule gave a log reduction at 1 µg/mL in data set [7] (setting [8]) of 1.15. The log reduction at 3.2 µg/mL in data set [7] (setting [9]) amounted to 1.84. Further, in data set [7] (setting [10]), the log reduction at 10 µg/mL turned out to be 2.64. Further, the log reduction at 32 µg/mL in data set [7] (setting [11]) is more than 3.7.
Consider `Nc1ncnc2c1ncn2C1CC(CO)C1CO` (stereo not drawn) [Example 4C, 9-(2',3'-Bis(hydroxymethyl)cyclobutyl)adenine], for which, in data set [1], the inhibition at 1 µM is 33%. Moreover, the inhibition at 10 µM in data set [1] was determined as 70%. Besides, the cytotoxicity at 1 µM in data set [2] (HIV-1 experiment) came out at 12%; in data set [2] (HIV-2 experiment), 9%. Besides, the cytotoxicity at 10 µM worked out at 33% in data set [2] (HIV-1 experiment) and 15% in data set [2] (HIV-2 experiment). For the same molecule, in data set [2] (HIV-1 experiment, 100 uM), the cytotoxicity at 100 µM stood at 34%. Also, the values for the half-inhibitory concentration (IC50) (in data set [3]; in the data set on A549: Lung carcinoma; in data set [5]) were 0.64 µg/mL (≈ 2.57 µM), 49.1 µg/mL (≈ 197 µM) and 71.4 µg/mL (≈ 286 µM), respectively. For the same molecule, the EC50 was determined as 18.1 µg/mL (≈ 72.6 µM) in data set [4] and 960 nM in data set [6]. In addition, the HCMV yield in data set [7] (0.32 ug/ml) is listed as 3.3 log10 PFU/ml; in data set [7] (1.0 ug/ml), 2.6 log10 PFU/ml; in data set [7] (3.2 ug/ml), less than 0.6 log10 PFU/ml; in data set [7] (10 ug/ml), less than 0.6 log10 PFU/ml; in data set [7] (32 ug/ml), less than 0.6 log10 PFU/ml. For the same molecule, the log reduction at 0.32 µg/mL in data set [7] (Human betaherpesvirus 5, 144 h, 0.32 ug/ml) was found to be 1.4. The same molecule registered a log reduction at 1 µg/mL in data set [7] (setting [8]) of 2.1. Further, the log reduction at 3.2 µg/mL in data set [7] (setting [9]) is more than 4.1. The molecule also gave a log reduction at 10 µg/mL in data set [7] (setting [10]) of more than 4.1. For the same molecule, the log reduction at 32 µg/mL in data set [7] (setting [11]) was more than 4.1.
